Columns and labels:
[1] = tested on: HCT-15 human colon adenocarcinoma xenografts; assay: Tumour xenograft efficacy, tumour volume; type: in vivo, mice; details: HCT15 xenografts; PO or IP twice a day, 12 days; vs vehicle
Description: A, B: is a graphical representation of tumour volumes estimated periodically as indicated. Mice bearing established tumour xenografts using HCT15 or MDA-MB-231 cells were treated orally (PO) or intraperitoneally (IP) twice a day with the indicated doses of Compound 1 or Compound 16 for 12 or 15 days. Paclitaxel (PTX) was given intravenously at dose of 40 mg/kg, 3 times every 4 days. Error bars show ±S.D. from mean tumour volumes obtained from 6 mice. Student's t-test was performed to determine the statistical significance (*=p<0.005). C: is a bar graph showing quantification of cells (n>100 per condition) with misaligned chromosomes and multipolar mitotic-spindles. […] tumour sections treated with Compound 16 (80 mg/kg) or control vehicle for 12 days were stained with anti-β-tubulin antibodies and DAPI. The percentage of cells with misaligned chromosomes and multipolar mitotic-spindles was quantified and plotted with mean values±S.D.
Mice bearing established tumor xenografts using HCT15 or MDA-MB-231 cells were treated orally (PO) or intraperitoneally (IP) twice a day with the indicated doses of Compound 1 or its derivative Compound 16 (b5) for 12 or 15 days, respectively. For comparison, paclitaxel (PTX) was given intravenously to mice bearing established tumour xenografts using HCT15 at dose of 40 mg/kg, 3 times every 4 days.

[2] = tested on: non-transformed normal BJ cells; assay: BrdU incorporation and FACS analysis (cell cycle arrest); type: cell-based, human
Description: A: is output from a FACS analysis of isogenic-non-transformed, without (panels a-c) (WT) or with (panels d-f) shRNA-mediated knockdown of p53 (p53KD), and oncogene-transformed BJ cells (panels g-i), each treated with 0, 5 or 2.5 μM Compound 1 (a131) for 24 h. Cells were doubly stained with PI (horizontal axis) and BrdU (vertical axis). The BrdU-positive population in panels a-c are indicated as arrows. B: is a diagrammatic representation of an immunoblot analysis showing isogenic non-transformed (normal) and oncogene-transformed BJ cells (transformed) treated with Compound 1 (a131) at 0, 2.5 or 5 μM for 24 h or 48 h. Cells were harvested and total lysates were analysed by detecting p53 and p21. Antibodies raised against β-actin were used as an internal loading control. C and D are histograms showing the percentage of bromodeoxyuracil (BrdU)-positive non-transformed (normal) BJ cells. C: Cells were treated with Group 1 Compound 1 (a131) at 2.5 and 5 μM, Compound 23 (b36) at 2.5 and 5 μM, and Compound 21 (b35) at 5 μM, and Group 2 Compound 25 (a166) at 2.5 and 5 μM, for 24 h. Cells were doubly stained with propidium iodide (PI) and BrdU, and subjected to FACS analysis. The BrdU-positive population are plotted as bars. D: Cells were treated with Group 1 Compound 1 (a131), Compound 16 (b5), and Compound 17 (b9); Group 2 Compound 13 (b12), Compound 12 (b16) and Compound 25 (a166), and Group 3 Compound 3 (a159) at 5 μM for 48 h. The percentage of cells with BrdU positive population, in comparison with DMSO control vehicle, is shown with mean values±S.D. (n=3).
Isogenic non-transformed and oncogene-transformed BJ cells (cultured as in Biology Example 3) were treated with Compound 1 at final concentrations of 2.5 and 5 μM for 24 h. The treated cells were then treated with 30 μM final concentration of 5-bromo-2′-deoxyuridine (BrdU, SIGMA) for 1 h to detect DNA synthesis as a marker for cell proliferation. Subsequently, the cells were fixed in EtOH at 4° C. overnight and permeabilized with 2N HCl/0.5% Triton X-100 for 30 min. The cells were then treated with 0.1M sodium tetraborate for 2 min and stained with anti-BrdU antibody (Invitrogen, Cat#B35129) for 60 min, followed by a 30 min treatment with 20 μg/mL of propidium iodide (PI) and 10 μg/mL RNaseA.
Furthermore, the abilities of additional five (5) Compounds to arrest cells at the stage of G1/S phase of the cell cycle were evaluated. […] The abilities of these Compounds to arrest cells at the stage of G1/S phase of the cell cycle were then measured by using BrdU incorporation assay and FACS analysis. The percentage of cells with BrdU positive population in comparison with DMSO control vehicle was determined and plotted with mean values±S.D. (n=3).

[3] = tested on: isogenic non-transformed (normal) BJ cells; assay: PI staining and FACS analysis, sub-G1 cell death; type: cell-based, human; details: 48 h
Description: FIG. 5A is a histogram showing the ability of Compound 1 (a131) and its derivatives Compound 2 (a156), Compound 16 (b5), Compound 17 (b9), all in Group 1; Compound 29 (a219), Compound 13 (b12), Compound 11 (b15), Compound 12 (b16), Compound 25 (a166), all in Group 2; and Compound 3 (a159) from Group 3, to induce cancer selective cell death. Isogenic non-transformed (normal) and oncogene-transformed BJ cells were treated with each compound for 48 h and cells were stained with propidium iodide (PI) and subjected to FACS analysis. The percentage of cells in sub-G1 phase is indicative of the extent of cell death. […] In contrast, the ability of the compounds in Groups 2 and 3 to induce cancer selective cell death was markedly compromised (or reduced).
The Compounds 25 (a166) and 3 (a159) were selected from Group 2 and Group 3, respectively. Isogenic non-transformed normal and oncogene-transformed BJ cells were treated with or without 0.3 μM or 0.6 μM Compound 3 (a159) alone or together with 1.25 μM Compound 25 (a166) for 48 h. Cells were stained with propidium iodide (PI) and subjected to FACS analysis.
Isogenic non-transformed and oncogene-transformed human fibroblast BJ cell lines were cultured in DMEM supplemented with 10% FBS. The cells were treated with Compound 1 (2.5 μM, DMSO). 48 h after treatment, the cells were fixed with ethanol at −30° C. overnight and stained with 20 μg/mL propidium iodide (PI) and 10 μg/mL RNase A for 30 min. These cells were then subjected to flow cytometry (FACS) analysis using MACSQuant (Miltenyi Biotec) to count the percentage of apoptotic cells in sub-G1 peak.
The above procedure was repeated for Group 1 Compounds 2, 16 and 17, Group 2 Compounds 29, 13, 11, 12 and 25 at a concentration of 10 μM, and Group 3 Compound 3 at a concentration of 5 μM.
Isogenic non-transformed normal and oncogene-transformed BJ cells were cultured as in Biology Example 3. The cells were treated with a combination of Compound 3 (Group 3, at a concentration of 0.3 μM or 0.6 μM), and Compound 25 (Group 2, at a concentration of 1.25 μM) for 48 hours. Controls using DMSO, Compound 3 and Compound 25 alone (at the concentrations mentioned above) were also performed.

Row | SMILES | anti-tumour effect (tumour volume) [1] | BrdU-positive cell population ([2]; 24 h, 2.5 and 5 μM (FIG. 9A, 9C)) | arrest at the G1/S phase of the cell cycle (BrdU incorporation) ([2]; 5 μM, 48 h (FIG. 9D)) | cell death (population of cells in sub-G1) ([3]; normal BJ cells (FIG. 5A)) | cell death ([3]; Compound 3 0.3 or 0.6 μM, Compound 25 1.25 μM, alone or in combination)
1 | N#C/C(=C\c1cccc2cnccc12)c1c[nH]c2ccccc12 [Compound 1, (Z)-2-(1H-indol-3-yl)-3-(isoquinolin-5-yl)acrylonitrile] | showed marked anti-tumour effects | markedly decreased the number of BrdU-positive non-transformed normal BJ cells | – | – | –
2 | N#C/C(=C\c1cccc2ncccc12)c1c[nH]c2ccccc12 [Compound 3, (Z)-2-(1H-indol-3-yl)-3-(quinolin-5-yl)acrylonitrile] | – | – | failed to do so | significantly induced cell death | did not lead to a significant increase in cell death
3 | CN1CCN(CC(=O)n2cc(/C(C#N)=C/c3cccc4cnccc34)c3ccccc32)CC1 [Compound 16, (Z)-3-(isoquinolin-5-yl)-2-(1-(2-(4-methylpiperazin-1-yl)acetyl)-1H-indol-3-yl)acrylonitrile] | showed marked anti-tumour effects | – | – | – | –

Reference: patent US10308631B2, “Selective anti-cancer compounds” (NATIONAL UNIVERSITY OF SINGAPORE, priority 2015, dated 2019)
